Reference: patent US11542295B2, “Use of 20-hydroxyecdysone and the derivatives thereof in the treatment of myopathies” (BIOPHYTIS, priority 2017, dated 2023)

Experiments:
[1] = system: tibialis anterior muscle of C57BL10 mdx mice; assay: Histological study of tibialis anterior muscle stained with Sirius Red (fibrotic area); assay type: in vivo, mouse; details: 50 mg/kg*day, two months, p=0.0709
Procedure: (§1) Twelve-week-old C57BL10 gene pool (wild mice referred to as “C57” in the figures) and C57BL10 mdx (mouse model of Duchenne muscular dystrophy, referred to as “mdx” in the figures) male mice, produced at Charles Rivers, were used. Two groups of mdx were chronically exposed per os either to BIO101 (number of mice n=9) or to BIO103 (number of mice n=9) at a dose of 50 mg/kg*day. A group of C57 mice (number of mice n=5) and a group of mdx mice (number of mice n=15) received the vehicle, i.e. no treatment. The animals of all of the groups were tested for their functional capacity (exertion tolerance test) after two months of treatment. The exertion tolerance test consists of measuring the maximum distance travelled (in-toto activity; FIGS. 1A and 1B). Furthermore, measurements of the maximum absolute isometric strength of the tibialis anterior muscle (in-situ activity; FIGS. 2A and 2B) were made after two months of treatment.
An assessment of muscle fibrosis by histological study is carried out on the tibialis anterior muscle (abbreviated as TA). Histological sections (7 μm) are produced and stained either with haematoxylin eosin (HE) or with Sirius Red (SR).
An anatomopathological analysis of the sections of tibialis anterior muscle stained with SR makes it possible to quantify the fibrotic area. […]

[2] = system: Col1a1 (collagen 1); assay: Heart mRNA expression of fibrosis marker Col1a1 (semi-quantitative PCR); assay type: in vivo, mouse; details: mdx mice, 50 mg/kg*day, two months
Procedure: (§2) Twelve-week-old C57BL10 gene pool (wild mice referred to as “C57” in the figures) and C57BL10 mdx (mouse model of Duchenne muscular dystrophy, referred to as “mdx” in the figures) male mice, produced at Charles Rivers, were used. Two groups of mdx were chronically exposed per os either to BIO101 (number of mice n=9) or to BIO103 (number of mice n=9) at a dose of 50 mg/kg*day. A group of C57 mice (number of mice n=5) and a group of mdx mice (number of mice n=15) received the vehicle, i.e. no treatment. The animals of all of the groups were tested for their functional capacity (exertion tolerance test) after two months of treatment. […]
(§3) An assessment of markers of fibrosis and cardiac hypertrophy is carried out at the end of the protocol, i.e. after two months of treatment. […] The extract RNA is quantified by spectrophotometry then the quality thereof is verified and validated with the Experion RNA StdSens Analysis Kit (Bio-Rad). […] Finally, semi-quantitative PCR analysis was carried out using SYBR® Green (Roche), a DNA intercalating agent and a LightCycler® 480 Real Time PCR (Roche) apparatus on 384-well plates. The molecular markers measured are as follows: • CTGF and collagen I: connective tissue growth factor (CTGF) is associated with healing and with many pathological fibrotic processes including DMD (Brigstock 2010; Song Y. 2017). […]

[3] = system: collagen I; assay: Collagen I protein expression in gastrocnemius muscle (Western Blot); assay type: in vivo, mouse; details: 50 mg/kg*day, two months, p<0.01
Procedure: as §1
Alongside the observations made on the tibialis anterior muscle, an assessment of a marker of muscle fibrosis is carried out on the gastrocnemius muscle. The muscle is dissociated with moderate stirring for 16 h at 4° C. in RIPA lysis buffer. […] Collagen I is detected by Western Blot, detected by chemiluminescence then quantified by densitometry after normalisation with reference to GAPDH detection. […]

[4] = system: AKT; assay: AKT phosphorylation in human DMD myocytes (Western Blot); assay type: cell-based; details: 10 μM, 10 minutes to 24 hours, vs untreated control
Procedure: (§4) Human DMD skeletal muscle cells (KM571DMD1OFL Cl1) were differentiated for 5 days then optionally incubated with BIO101 at 10 μM for periods of between 10 minutes and 24 hours.
(§5) A densitometric analysis of results of at least 6 independent Western Blot experiments described the effects of BIO101 on the phosphorylation of AKT (FIG. 8A) and ERK1/2 (FIG. 8B) is shown, *p<0.05 versus the untreated control.

[5] = system: ERK1/2; assay: ERK1/2 phosphorylation in human DMD myocytes (Western Blot); assay type: cell-based; details: 10 μM, 10 minutes to 24 hours, vs untreated control
Procedure: as §4, §5

[6] = system: Human DMD skeletal muscle cells (KM571DMD1OFL Cl1); assay: Cellular respiration (oxygen consumption rate, Seahorse XF Analyzer); assay type: cell-based; details: two days of treatment
Procedure: Human DMD skeletal muscle cells (KM571DMD1OFL Cl1) were differentiated for 4 days, then incubated in the presence or absence of BIO101 (1 or 5 μM) for 2 days. The oxygen consumption rate, also known as OCR, which reflects the mitochondrial respiration of the cells was measured using a Seahorse XF Analyzer (registered trademark, Agilent).
The basal respiration is measured directly whereas the maximum respiration is measured after adding oligomycin followed by FCCP (FIG. 9A and FIG. 9B). The results are referenced to the OCR of the untreated cells and are shown in the form of means plus or minus the standard error (SEM).

[7] = system: CTGF (connective tissue growth factor); assay: Heart mRNA expression of fibrosis marker CTGF (semi-quantitative PCR); assay type: in vivo, mouse; details: mdx mice, 50 mg/kg*day, two months; p=0,0506
Procedure: as §2, §3

[8] = system: BMP4 (bone morphogenetic protein 4); assay: Heart mRNA expression of BMP4 (semi-quantitative PCR); assay type: in vivo, mouse; details: mdx mice, 50 mg/kg*day, two months; p=0.0529
Procedure: as §2, §3

| Compound | onset of fibrosis (percentage area corresponding to fibrosis) compared to the control mdx group [1] | genic expression of Col1a1 in heart compared to control mdx animals [2] | protein expression of collagen I in gastrocnemius muscle compared to untreated mdx mice [3] | p-AKT (phosphorylation of AKT) [4] | p-ERK1/2 (phosphorylation of ERK1/2) [5] | basal respiration increase (OCR) vs untreated cells ([6]; 1 μM, p<0.01) [%] | maximum respiration increase (OCR after oligomycin and FCCP) vs untreated cells ([6]; 1 μM, p<0.05) [%] | maximum respiration increase (OCR after oligomycin and FCCP) vs untreated cells ([6]; 5 μM, p =0.13) [%] | basal respiration increase (OCR) vs untreated cells ([6]; 5 μM, p<0.001) [%] | genic expression of CTGF in heart compared to control mdx animals [7] | genic expression of BMP4 in heart compared to control mdx animals [8] |
| --- | --- | --- | --- | --- | --- | --- | --- | --- | --- | --- | --- |
| CCSCC(=O)[C@H]1CC[C@@]2(O)C3=CC(=O)[C@@H]4C[C@@H](O)[C@@H](O)C[C@]4(C)C3CC[C@]12C (stereo partly drawn) [BIO103, (2S,3R,5R,10R,13R,14S,17S)-17-(2-ethylsulfanylacetyl)-2,3,14-trihydroxy-10,13-dimethyl-2,3,4,5,9,11,12,15,16,17-decahydro-1H-cyclopenta[a]phenanthren-6-one] | clearly tends to prevent | tends to prevent | significant decrease |  |  |  |  |  |  |  |  |
| CC(C)(O)CC[C@@H](O)[C@](C)(O)[C@H]1CC[C@@]2(O)C3=CC(=O)[C@@H]4C[C@@H](O)[C@@H](O)C[C@]4(C)[C@H]3CC[C@]12C [BIO101, 20-hydroxyecdysone] |  |  |  | significant increase | significant increase | 20 | 51 | 22 | 21 | prevents | reduces |
